Assay results: patent US12285402B2, “Compositions and methods for treating pulmonary disorders” (GNT Pharma Co., Ltd., priority 2021, dated 2025)

Legend:
[1] = tested on: PPE-induced COPD model mice; assay: Porcine pancreatic elastase (PPE)-induced emphysema model, post-treatment; type: in vivo, C57BL/6J mice; conditions: started 3 days after PPE, sacrifice day 21
Protocol: Porcine Pancreatic Elastase (PPE)-induced emphysema model was used to measure the post-treatment effects of ATPB in COPD model mice. C57BL/6J mice were intratracheally injected with PPE (0.8 U per mouse) in PBS via a micropipette. The mice were randomly divided into […]: (A) emphysema group, which was exposed to intratracheal PPE; (B) emphysema+ATPB (5 mg/kg ATPB, PO, bid); (C) emphysema +ATPB (10 mg/kg ATPB, PO, bid); (D) emphysema +roflumilast (10 mg/kg, PO, qd); and (E) emphysema +prednisolone (1 mg/kg, PO, qd). All treatments were started 3 days after the PPE injection. Mice were sacrificed 21 days after the PPE injection.
(§1) Rats and mice were sacrificed, and BALF was obtained by cannulating the trachea and lavage three times with 2 mL DPBS. BALF cells were centrifuged at 1000×g for 10 min at 4° C. The supernatants were collected and stored at −80° C. to measure inflammatory factors. The pelleted BALF cells were resuspended in 1 mL PBS and quantified using a hematology analyzer (Mindray Medical International Ltd., Shenzhen, China).

[2] = tested on: smoking-induced COPD rats; assay: Rat model of COPD by smoke exposure and intratracheal LPS; type: in vivo; conditions: for IL-6 gene expression in the lungs (RT-PCR) / MCP-1 gene expression in the lungs (RT-PCR) / TNF-α gene expression in the lungs (RT-PCR): FIG. 7, P<0.01 or P<0.05
Protocol: As described previously, the rat model of COPD was established by smoke exposure and intratracheal instillation of lipopolysaccharide (LPS). Experimental rats, including the COPD and drug-treated groups (10 mg/kg ATPB), underwent whole-body exposure to tobacco smoke from 10 cigarettes in a tobacco smoke chamber (90×40×30 cm, made of Plexiglas) twice a day with 2-hour smoke-free intervals, every day for 12 weeks.
Animals from the two smoke-exposed groups were administered 180 μg/180 μL of LPS solution intratracheally on two occasions, on the first and 14th days of tobacco smoke exposure. Additionally, rats in the ATPB group were orally administered ATPB (10 mg/kg ATPB). All rats were sacrificed on the 91st day.
as §1
Total RNA from the lung tissue was extracted using TRIzol reagent (Invitrogen) according to the manufacturer's instructions. cDNA was synthesized using a cDNA Synthesis Kit (Life Technologies). SYBR Green Master Mix (Thermo Fisher) was used for PCR amplification on a StepOnePlus Real-Time PCR System (Applied Biosystems, Foster City, Calif., USA).
The lungs of the rats were removed at week 12 and fixed in 10% neutral buffered formalin for histopathological analysis. Formalin-fixed tissues were embedded in paraffin, sectioned at […], and stained with hematoxylin and eosin (HE) and Alcian blue-periodic acid-Schiff (AB-PAS) to reveal histopathological lesions.

[3] = tested on: OVA-challenged mice; assay: OVA-induced mouse asthma model; type: in vivo, Balb/C mice
Protocol: Seven-week-old female Balb/C mice were sensitized by intraperitoneal injection (IP, 200 μL/mouse) of 100 μg OVA complexed with aluminum potassium sulfate on days 0, 7, and 14. On days 26, 27, and 28, mice were challenged with 5% aerosolized OVA in 48 mL sterile phosphate-buffered saline (PBS). The control group received sterile PBS with aluminum potassium sulfate via the IP route on days 0, 7, 14, and 48 mL of aerosolized sterile PBS on days 26, 27, and 28. Mice in the ATPB group were orally administered 10 mg/kg bid ATPB on days […], 27, 28, and 29.
as §1

[4] = ATPB 10 mg/kg bid oral, vs OVA-challenged mice, FIG. 2
[5] = ATPB 10 mg/kg bid oral, vs vehicle group, FIG. 3
[6] = ATPB 10 mg/kg, vs OVA-challenged mice, FIG. 4
[7] = ATPB 10 mg/kg, vs COPD rats, FIG. 6

O=C(Nc1c(Cl)cncc1Cl)c1ccc(OC(F)F)c(OCC2CC2)c1 [roflumilast]
number of WBC in BALF ([1]; roflumilast 10 mg/kg PO qd, FIG. 8): Neither roflumilast nor prednisolone reduced the WBC count

C[C@]12C=CC(=O)C=C1CC[C@@H]1[C@@H]2[C@@H](O)C[C@@]2(C)[C@H]1CC[C@]2(O)C(=O)CO [prednisolone, reference compound]
IL-6 gene expression in the lungs (RT-PCR) ([2]; vs COPD group): decreased
MCP-1 gene expression in the lungs (RT-PCR) ([2]; vs COPD group): decreased
TNF-α gene expression in the lungs (RT-PCR) ([2]; vs COPD group): decreased
number of WBC in BALF ([1]; prednisolone 1 mg/kg PO qd, FIG. 8): Neither roflumilast nor prednisolone reduced the WBC count

CC(=O)Oc1ccc(NCCc2ccc(C(F)(F)F)cc2)cc1C(=O)O [ATPB, 2-acetoxy-5-[2-(4-trifluoromethyl-phenyl)-ethylamino]-benzoic acid]
IL-4 production in BALF (ELISA) [3, 4]: significantly downregulated
IL-5 production in BALF (ELISA) [3, 4]: significantly downregulated
production of IgE in the serum (ELISA) ([3]; ATPB 10 mg/kg bid oral, vs OVA-challenged mice, serum 24 h after last OVA challenge): significantly reduced
EO (eosinophil) cell count in BALF [3, 5]: markedly reduced
LY (lymphocyte) cell count in BALF [3, 5]: markedly reduced
MO (monocyte) cell count in BALF [3, 5]: markedly reduced
WBC cell count in BALF [3, 5]: markedly reduced
cell infiltration into peribranchial lung lesions (H&E staining) [3, 6]: notably downregulated
mucus hypersecretion in the bronchial airways (PAS staining) [3, 6]: attenuated
OVA-induced inflammatory cell counts in BALF ([3]; after last OVA challenge, FIG. 3 legend): significantly reduced
OVA-induced eotaxin production ([3]; mouse asthma model): attenuated
OVA-specific IgE levels in serum (ELISA) ([3]; serum 24 h after last OVA aerosol challenge, FIG. 1): significantly lowered
number of WBCs in BALF ([2]; ATPB 10 mg/kg oral, LPS and chronic smoking, 12 weeks, vs vehicle group, FIG. 5): markedly reduced
alveolar sacs and alveolar spaces enlargement (H&E lung histopathology) ([2]; ATPB 10 mg/kg oral, vs COPD group, FIG. 6): relieved
goblet cell proliferation (PAS+ cells) [2, 7]: decreased
mucous secretion (PAS staining) [2, 7]: reduced levels
IL-6 gene expression in the lungs (RT-PCR) ([2]; vs COPD group): decreased
MCP-1 gene expression in the lungs (RT-PCR) ([2]; vs COPD group): decreased
TNF-α gene expression in the lungs (RT-PCR) ([2]; vs COPD group): decreased
number of WBC in BALF ([1]; 10 mg/kg ATPB PO bid, vs vehicle, FIG. 8, P<0.05): significantly reduced
